Experimental data published in patent US10457654B2 (GENENTECH, INC., priority 2017, dated 2019).
Counter-ions that a name gives are not always drawn. Like-named read-outs stand apart in the source and are kept apart here.

Target: hNav1.7 (Homo sapiens (Human), UniProt Q15858)
Assay: Tritiated compound binding to membranes from cells expressing hNav1.7 and the β1 subunit, competitive binding (LBA, Ex. 243A)
Details: 100 pM [3H]compound, 18 h, room temperature
Protocol: Tritiated Compound Binding to Membranes Isolated from Cells that Heterologously Express hNav1.7 and the β1 Subunit
Preparation of membranes containing recombinantly expressed sodium channels: Frozen recombinant cell pellets were thawed on ice and diluted to 4 times the cell pellet weight with ice cold 50 mM Tris HCl, pH 7.4 buffer. The cell suspensions were homogenized on ice using a motorized glass dounce homogeniser. Homogenates were further diluted 8.4 times with ice cold 50 mM Tris HCl, pH 7.4 buffer and then centrifuged at 200×g at 4° C. for 15 min. The supernatants were collected and centrifuged at 10000×g at 4° C. for 50 min. […] The homogenized membranes were then processed through a syringe equipped with a 26 gauge needle. Protein concentrations were determined by Bradford Assay and the membranes were stored at −80° C.
Radioligand Binding Studies: Saturation experiments. A competitive NaV1.7 inhibitor having a methyl group was tritiated. Three tritiums were incorporated in place of methyl hydrogens to generate [^3H]compound. Binding of this radioligand was performed in 5 mL borosilicate glass test tubes at room temperature. […] Non-specific binding was determined in the presence of 1 μM unlabeled compound. After 18h, the reactants were filtered through GF/C glass fiber filters presoaked in 0.5% w/v polyethylene imine. […] [^3H]compound bound to filters was quantified by liquid scintillation counting.
Competitive binding experiments: Binding reactions were performed in 96-well polypropylene plates at room temperature for 18h. In 360 μL, membranes were incubated with 100 pM [^3H]compound and increasing concentrations of Test Compound. Non-specific binding was defined in the presence of 1 μM unlabeled compound. Reactions were transferred and filtered through 96-well glass fiber/C filter plates presoaked with 0.5% polyethylene imine. The filtered reactions were washed 5 times with 200 μL ice cold buffer containing 0.25% BSA. Bound radioactivity was determined by liquid scintillation counting.
Data Analysis: For saturation experiments, non-specific binding was subtracted from total binding to provide specific binding and these values were recalculated in terms of pmol ligand bound per mg protein. Saturation curves were constructed and dissociation constants were calculated using the single site ligand binding model: Beq=(Bmax*X)/(X+Kd), where Beq is the amount of ligand bound at equilibrium, Bmax is the maximum receptor density, Kd is the dissociation constant for the ligand, and X is the free ligand concentration. For competition studies percent inhibition was determined and IC50 values were calculated using a 4 parameter logistic model (% inhibition=(A+((B−A)/(1+((x/C)^D)))) using XLfit, where A and B are the maximal and minimum inhibition respectively, C is the IC50 concentration and D is the (Hill) slope.

[1] = read-out: Nav1.7 (LBA) (Ex. 243A)
[2] = read-out: Nav1.7 LBA (Ex. 243A) IC50

Sequence of hNav1.7 (Q15858 whole entry, looked up): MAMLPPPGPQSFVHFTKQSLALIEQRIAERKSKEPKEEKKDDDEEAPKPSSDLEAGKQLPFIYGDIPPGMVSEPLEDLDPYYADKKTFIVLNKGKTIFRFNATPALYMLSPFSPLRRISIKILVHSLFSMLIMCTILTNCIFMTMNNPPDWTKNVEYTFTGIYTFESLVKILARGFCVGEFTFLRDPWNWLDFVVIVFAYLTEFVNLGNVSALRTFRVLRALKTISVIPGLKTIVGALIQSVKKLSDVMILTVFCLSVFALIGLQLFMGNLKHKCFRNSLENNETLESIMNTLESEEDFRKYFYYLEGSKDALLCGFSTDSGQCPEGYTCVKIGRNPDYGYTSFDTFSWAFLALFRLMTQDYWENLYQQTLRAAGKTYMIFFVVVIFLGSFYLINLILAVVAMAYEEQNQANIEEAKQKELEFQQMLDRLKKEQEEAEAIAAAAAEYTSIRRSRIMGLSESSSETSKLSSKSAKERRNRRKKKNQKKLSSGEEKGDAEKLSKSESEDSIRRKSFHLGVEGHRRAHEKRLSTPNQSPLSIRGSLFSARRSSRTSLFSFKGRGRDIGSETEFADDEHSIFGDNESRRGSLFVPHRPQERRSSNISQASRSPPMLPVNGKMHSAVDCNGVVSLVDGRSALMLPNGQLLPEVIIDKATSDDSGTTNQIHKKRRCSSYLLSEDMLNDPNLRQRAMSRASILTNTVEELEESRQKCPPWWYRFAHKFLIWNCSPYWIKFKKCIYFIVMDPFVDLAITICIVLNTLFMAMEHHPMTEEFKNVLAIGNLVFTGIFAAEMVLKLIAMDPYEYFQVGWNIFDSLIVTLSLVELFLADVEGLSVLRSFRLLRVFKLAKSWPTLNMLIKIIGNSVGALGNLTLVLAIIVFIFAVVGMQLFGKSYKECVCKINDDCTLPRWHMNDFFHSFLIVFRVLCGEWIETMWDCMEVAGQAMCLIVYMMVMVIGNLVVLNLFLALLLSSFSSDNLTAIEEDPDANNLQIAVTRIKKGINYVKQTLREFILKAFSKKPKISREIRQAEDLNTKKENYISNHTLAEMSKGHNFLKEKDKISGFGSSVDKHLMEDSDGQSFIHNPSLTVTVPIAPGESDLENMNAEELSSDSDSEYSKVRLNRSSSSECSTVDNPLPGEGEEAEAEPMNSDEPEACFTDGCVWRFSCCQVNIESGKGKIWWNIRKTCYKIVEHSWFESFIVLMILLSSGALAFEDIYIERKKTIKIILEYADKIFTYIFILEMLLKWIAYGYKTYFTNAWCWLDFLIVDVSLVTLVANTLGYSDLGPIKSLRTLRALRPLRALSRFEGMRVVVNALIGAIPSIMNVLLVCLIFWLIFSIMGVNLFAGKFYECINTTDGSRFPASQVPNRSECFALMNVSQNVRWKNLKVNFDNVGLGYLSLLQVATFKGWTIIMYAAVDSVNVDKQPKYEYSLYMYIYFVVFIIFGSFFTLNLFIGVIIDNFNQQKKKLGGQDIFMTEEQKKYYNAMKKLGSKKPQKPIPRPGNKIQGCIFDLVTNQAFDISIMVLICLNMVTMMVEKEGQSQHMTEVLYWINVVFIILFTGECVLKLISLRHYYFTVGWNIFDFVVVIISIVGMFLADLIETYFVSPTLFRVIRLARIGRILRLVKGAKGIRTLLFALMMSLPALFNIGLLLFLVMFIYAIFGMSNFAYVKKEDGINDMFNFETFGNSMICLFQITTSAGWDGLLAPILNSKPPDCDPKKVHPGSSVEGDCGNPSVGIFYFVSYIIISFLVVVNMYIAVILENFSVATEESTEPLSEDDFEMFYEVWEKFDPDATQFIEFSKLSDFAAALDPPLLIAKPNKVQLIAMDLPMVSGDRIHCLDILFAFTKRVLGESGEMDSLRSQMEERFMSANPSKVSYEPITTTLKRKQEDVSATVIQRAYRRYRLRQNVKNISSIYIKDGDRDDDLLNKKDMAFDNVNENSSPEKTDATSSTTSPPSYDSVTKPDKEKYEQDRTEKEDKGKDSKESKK
Sequence of hNav1.7 (Q07699 whole entry partner, looked up): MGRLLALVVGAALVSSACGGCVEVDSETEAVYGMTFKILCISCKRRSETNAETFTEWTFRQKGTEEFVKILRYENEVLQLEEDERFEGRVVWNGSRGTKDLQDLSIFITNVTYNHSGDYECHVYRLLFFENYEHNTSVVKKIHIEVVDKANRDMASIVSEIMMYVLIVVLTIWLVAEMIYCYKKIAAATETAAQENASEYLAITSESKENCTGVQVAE

Row | IC50 [1] | IC50 [2] | Structure (SMILES)
1 | 3000 nM |  | CN(C)[C@@H]1CCCC[C@H]1Oc1cc(F)c(S(=O)(=O)Nc2nccs2)cc1Cl [Example 8, 5-chloro-4-(((1R,2R)-2-(dimethylamino)cyclohexyl)oxy)-2-fluoro-N-(thiazol-2-yl)benzenesulfonamide]
2 | 3000 nM |  | CN(C)[C@H]1CCC[C@@H]1Oc1cc(F)c(S(=O)(=O)Nc2nccs2)cc1Cl [Example 9, 5-chloro-4-(((1S,2S)-2-(dimethylamino)cyclopentyl)oxy)-2-fluoro-N-(thiazol-2-yl)benzenesulfonamide]
3 | 553 nM |  | CN(C)[C@@H]1CCC[C@H]1Oc1cc(F)c(S(=O)(=O)Nc2nccs2)cc1Cl [Example 10, 5-chloro-4-(((1R,2R)-2-(dimethylamino)cyclopentyl)oxy)-2-fluoro-N-(thiazol-2-yl)benzenesulfonamide]
4 | 126 nM |  | CN(C)[C@H]1CCCC[C@@H]1Nc1cc(F)c(S(=O)(=O)Nc2ccncn2)cc1Cl [Example 11, 5-chloro-4-(((1S,2S)-2-(dimethylamino)cyclohexyl)amino)-2-fluoro-N-(pyrimidin-4-yl)benzenesulfonamide]
5 | 165 nM |  | CN(C)[C@H]1CCC[C@@H]1Nc1cc(F)c(S(=O)(=O)Nc2nccs2)cc1Cl [Example 12, 5-chloro-4-(((1S,2S)-2-(dimethylamino)cyclopentyl)amino)-2-fluoro-N-(thiazol-2-yl)benzenesulfonamide]
6 | 357 nM |  | CN(C)[C@H]1CCCC[C@@H]1Nc1cc(F)c(S(=O)(=O)Nc2ncns2)cc1F [Example 13, 4-(((1S,2S)-2-(dimethylamino)cyclohexyl)amino)-2,5-difluoro-N-(1,2,4-thiadiazol-5-yl)benzenesulfonamide formate]
7 | 21.9 nM |  | CN(C)[C@H]1CCCC[C@@H]1Nc1cc(F)c(S(=O)(=O)Nc2nccs2)cc1Br [Example 14, 5-bromo-4-[[(1S,2S)-2-(dimethylamino)cyclohexyl]amino]-2-fluoro-N-thiazol-2-yl-benzenesulfonamide]
8 | 26.9 nM |  | CN(C)[C@H]1CCCC[C@@H]1Nc1cc(F)c(S(=O)(=O)Nc2nccs2)cc1C1CC1 [Example 15, 5-cyclopropyl-4-[[(1S,2S)-2-(dimethylamino)cyclohexyl]amino]-2-fluoro-N-thiazol-2-yl-benzenesulfonamide]
9 | 325 nM |  | O=S(=O)(Nc1nccs1)c1cc(Cl)c(N[C@H]2CCCC[C@@H]2NC2CCC2)cc1F [Example 16, 5-chloro-4-[[(1S,2S)-2-(cyclobutylamino)cyclohexyl]amino]-2-fluoro-N-thiazol-2-yl-benzenesulfonamide]
10 | 237 nM |  | CCN(CC)[C@H]1CCCC[C@@H]1Nc1cc(F)c(S(=O)(=O)Nc2nccs2)cc1Cl [Example 17, 5-chloro-4-[[(1S,2S)-2-(diethylamino)cyclohexyl]amino]-2-fluoro-N-thiazol-2-yl-benzenesulfonamide]
11 | 16.8 nM |  | CCN(C)[C@H]1CCCC[C@@H]1Nc1cc(F)c(S(=O)(=O)Nc2nccs2)cc1Cl [Example 18, 5-chloro-4-[[(1S,2S)-2-[ethyl(methyl)amino]cyclohexyl]amino]-2-fluoro-N-thiazol-2-yl-benzenesulfonamide]
12 | 45.1 nM |  | CN(C1CC1)[C@H]1CCCC[C@@H]1Nc1cc(F)c(S(=O)(=O)Nc2nccs2)cc1Cl [Example 19, 5-chloro-4-[[(1S,2S)-2-[cyclopropyl(methyl)amino]cyclohexyl]amino]-2-fluoro-N-thiazol-2-yl-benzenesulfonamide]
13 | 211 nM |  | CN[C@H]1CCCC[C@@H]1N(C)c1cc(F)c(S(=O)(=O)Nc2nccs2)cc1Cl [Example 20, 5-chloro-2-fluoro-4-(methyl((1S,2S)-2-(methylamino)cyclohexyl)amino)-N-(thiazol-2-yl)benzenesulfonamide]
14 | 214 nM |  | O=S(=O)(Nc1nccs1)c1cc(Cl)c(N[C@H]2CCCC[C@@H]2N2CCC2)cc1F [Example 21, 4-(((1S,2S)-2-(azetidin-1-yl)cyclohexyl)amino)-5-chloro-2-fluoro-N-(thiazol-2-yl)benzenesulfonamide]
15 | 8.4 nM |  | CN(C)[C@H]1CC(C(F)(F)F)=CC[C@@H]1Nc1cc(F)c(S(=O)(=O)Nc2nccs2)cc1Cl [Example 23]
16 | 49.9 nM |  | CN(C)[C@H]1CCCC[C@@H]1Oc1cc(F)c(S(=O)(=O)Nc2nccs2)cc1C1CC1 [Example 24, 5-cyclopropyl-4-[(1S,2S)-2-(dimethylamino)cyclohexoxy]-2-fluoro-N-thiazol-2-yl-benzenesulfonamide]
17 | 7420 nM |  | CN(C)[C@@H]1CCCC[C@H]1Oc1cc(F)c(S(=O)(=O)Nc2nccs2)cc1C1CC1 [Example 25, 5-cyclopropyl-4-[(1R,2R)-2-(dimethylamino)cyclohexoxy]-2-fluoro-N-thiazol-2-yl-benzenesulfonamide]
18 | 41.5 nM |  | CN(C)[C@H]1CCCC[C@@H]1Nc1cc(F)c(S(=O)(=O)Nc2ncc(Cl)s2)cc1Cl [Example 26, 5-chloro-N-(5-chlorothiazol-2-yl)-4-(((1 S,2S)-2-(dimethylamino)cyclohexyl)amino)-2-fluorobenzenesulfonamide]
19 | 149 nM |  | Cc1csc(NS(=O)(=O)c2cc(Cl)c(N[C@H]3CCCC[C@@H]3N(C)C)cc2F)n1 [Example 27, 5-chloro-4-(((1 S,2S)-2-(dimethylamino)cyclohexyl)amino)-2-fluoro-N-(4-methylthiazol-2-yl)benzenesulfonamide formate]
20 |  | 199 nM | CN(C)[C@H]1CCCC[C@@H]1Nc1ccc(S(=O)(=O)Nc2nccs2)cc1[N+](=O)[O-] [Example 28, 4-(((1S,2S)-2-(dimethylamino)cyclohexyl)amino)-3-nitro-N-(thiazol-2-yl)benzenesulfonamide]
21 |  | 60.1 nM | CCCN(C)[C@H]1CCCC[C@@H]1Nc1cc(F)c(S(=O)(=O)Nc2nccs2)cc1Cl [Example 29, 5-chloro-2-fluoro-4-(((1S,2S)-2-(methyl(propyl)amino)cyclohexyl)amino)-N-(thiazol-2-yl)benzenesulfonamide]
22 |  | 82.4 nM | CC(C)N(C)[C@H]1CCCC[C@@H]1Nc1cc(F)c(S(=O)(=O)Nc2nccs2)cc1Cl [Example 33, 5-chloro-2-fluoro-4-(((1S,2S)-2-(isopropyl(methyl)amino)cyclohexyl)amino)-N-(thiazol-2-yl)benzenesulfonamide]
23 |  | 35.2 nM | CCCN[C@H]1CCCC[C@@H]1Nc1cc(F)c(S(=O)(=O)Nc2nccs2)cc1Cl [Example 34, 5-chloro-2-fluoro-4-(((1 S,2S)-2-(propylamino)cyclohexyl)amino)-N-(thiazol-2-yl)benzenesulfonamide]
24 |  | 93.6 nM | CN(C)[C@@H]1C[C@H](C(F)(F)F)CC[C@H]1Nc1cc(F)c(S(=O)(=O)Nc2nccs2)cc1Cl [Example 36, 5-chloro-4-(((1R,2R,4R)-2-(dimethylamino)-4-(trifluoromethyl)cyclohexyl)amino)-2-fluoro-N-(thiazol-2-yl)benzenesulfonamide]
25 |  | 880 nM | Cc1cnc(NS(=O)(=O)c2cc(Cl)c(N[C@H]3CCCC[C@@H]3N(C)C)cc2F)s1 [Example 40, 5-chloro-4-(((1S,2S)-2-(dimethylamino)cyclohexyl)amino)-2-fluoro-N-(5-methylthiazol-2-yl)benzenesulfonamide formate]
26 |  | 27.2 nM | CCN[C@H]1CCCC[C@@H]1Oc1cc(F)c(S(=O)(=O)Nc2nccs2)cc1Cl [Example 42, 5-chloro-4-(((1S,2S)-2-(ethylamino)cyclohexyl)oxy)-2-fluoro-N-(thiazol-2-yl)benzenesulfonamide]
27 |  | 1130 nM | CCN[C@@H]1CCCC[C@H]1Oc1cc(F)c(S(=O)(=O)Nc2nccs2)cc1Cl [Example 43, 5-chloro-4-(((1R,2R)-2-(ethylamino)cyclohexyl)oxy)-2-fluoro-N-(thiazol-2-yl)benzenesulfonamide]

Row | Structure (SMILES) | IC50 [1] | IC50 [2]
28 | CN(CC1CC1)[C@H]1CCCC[C@@H]1Nc1cc(F)c(S(=O)(=O)Nc2nccs2)cc1Cl [Example 31, 5-chloro-4-(((1S,2S)-2-((cyclopropylmethyl)(methyl)amino)cyclohexyl)amino)-2-fluoro-N-(thiazol-2-yl)benzenesulfonamide] |  | 163 nM
29 | CN(CCF)[C@H]1CCCC[C@@H]1Nc1cc(F)c(S(=O)(=O)Nc2nccs2)cc1Cl [Example 37, 5-chloro-2-fluoro-4-(((1S,2S)-2-((2-fluoroethyl)(methyl)amino)cyclohexyl)amino)-N-(thiazol-2-yl)benzenesulfonamide formate] |  | 2.76 nM
